Measured values published in ChEMBL document CHEMBL5050844 (2019).

What was measured:
Type in all cases: functional, T cell line
[1] = Induction of anti-CD3 antibodies-stimulated human T cell activation at 1 uM assessed fold increase in CD25 expression measured by ELISA assay; note: reference of the scale not given here
[2] = Induction of anti-CD3 antibodies-stimulated human T cell activation at 1 uM assessed fold increase in IL-2 secretion measured by ELISA assay; note: reference of the scale not given here
[3] = Induction of anti-CD3/CD28 antibodies-stimulated human T cell activation at 4 uM assessed fold increase in IL-2 secretion measured by ELISA assay
[4] = Induction of anti-CD3/CD28 antibodies-stimulated human T cell activation at 0.3 uM assessed fold increase in IL-2 secretion measured by ELISA assay
[5] = Induction of anti-CD3/CD28 antibodies-stimulated human T cell activation at 4 uM assessed fold increase in CD25 expression measured by ELISA assay
[6] = Induction of anti-CD3/CD28 antibodies-stimulated human T cell activation at 1 uM assessed fold increase in IL-2 secretion measured by ELISA assay
[7] = Induction of anti-CD3 antibodies-stimulated human T cell activation at 8 uM assessed fold increase in CD25 expression measured by ELISA assay; note: reference of the scale not given here
[8] = Induction of anti-CD3/CD28 antibodies-stimulated human T cell activation at 0.3 uM assessed fold increase in CD25 expression measured by ELISA assay
[9] = Induction of anti-CD3 antibodies-stimulated human T cell activation at 8 uM assessed fold increase in IL-2 secretion measured by ELISA assay; note: reference of the scale not given here
[10] = Induction of anti-CD3/CD28 antibodies-stimulated human T cell activation at 1 uM assessed fold increase in CD25 expression measured by ELISA assay

Row | Structure (SMILES) | fold change (FC) [1] | fold change (FC) [2] | fold change (FC) [3] | fold change (FC) [4] | fold change (FC) [5] | fold change (FC) [6] | fold change (FC) [7] | fold change (FC) [8] | fold change (FC) [9] | fold change (FC) [10]
1 | C[C@H](O)CNc1cc([C@H](C)Cc2nncn2C)cc(N2Cc3c(cccc3C(F)(F)F)C2=O)n1 | 0.601 | 0.051 | 1.01 | 1.01 | 1.01 | 1.01 | 0.601 | 1.01 | 0.101 | 1.01
2 | C[C@H](Sc1nncn1C)c1cccc(NC(=O)c2cc(C(=O)N3C[C@H](O)C[C@@H]3C)ccn2)c1 | <=0.6 | <=0.05 | >=7.5 | >=7.5 | 1.01 | >=7.5 | 0.601 | 1.01 | <=0.05 | 1.01
3 | CC1CCc2c1n[nH]c2C(=O)Nc1cccc([C@H](C)Cc2nncn2C)c1 (stereo not given in full) | 0.601 | 0.101 | 5 | 1.01 | 1.01 | 2.51 | >=1.001 | <=1 | >=0.201 | <=1
4 | CC(Cc1nncn1C)c1cc(C2CCC2)cc(N2Cc3c(cccc3C(F)(F)F)C2=O)c1 (stereo not given) | 0.601 | 0.051 | 1.01 | 1.01 | 1.01 | 1.01 | 0.801 | 1.01 | 0.051 | 1.01
5 | C[C@H](Sc1nncn1C)c1cccc(NC(=O)c2ccnc(C(F)(F)F)n2)c1 | 0.601 | <=0.05 | 1.01 | 1.01 | 1.01 | 1.01 | 0.801 | 1.01 | 0.051 | 1.01
6 | C[C@H](Cc1nncn1C)c1cccc(NC(=O)c2cc(S(N)(=O)=O)cc(C(F)(F)F)n2)c1 | 0.801 | <=0.05 | 1.01 | <=1 | 1.01 | <=1 | >=1.001 | 1.01 | 0.051 | 1.01
7 | C[C@H](Cc1nncn1C)c1cccc(N2Cc3c(ccnc3C(F)(F)F)C2=O)c1 | 0.801 | 0.101 | 5 | 1.01 | 1.01 | 2.51 | >=1.001 | 1.01 | >=0.201 | 1.01
8 | C[C@H](Cc1nncn1C)c1cccc(NC(=O)c2cc(C(C)(C)O)cc(C(F)(F)F)n2)c1 | 0.801 | 0.101 | 5 | 1.01 | 1.01 | 2.51 | >=1.001 | 1.01 | >=0.201 | 1.01
9 | C[C@H](CO)Nc1cc([C@H](C)Cc2nncn2C)cc(N2Cc3c(cccc3C(F)(F)F)C2=O)n1 | 0.801 | 0.051 | 5 | 1.01 | 1.31 | 2.51 | >=1.001 | 1.01 | >=0.201 | 1.01
10 | CC(Sc1nncn1C)c1cc(F)cc(N2Cc3c(cccc3C(F)(F)F)C2=O)c1 (stereo not given) | 0.801 | <=0.05 | 1.01 | 1.01 | 1.01 | 1.01 | 0.601 | <=1 | 0.051 | <=1
11 | Cc1ccnn1CC(C)c1cccc(NC(=O)c2cccc(C(F)(F)F)n2)c1 (stereo not given) | <=0.6 | 0.051 | 1.01 | <=1 | 1.51 | <=1 | <=0.6 | 1.51 | 0.051 | 1.31
12 | Cn1cnnc1[C@@H]1CC[C@@H]1c1cccc(N2Cc3c(cccc3C(F)(F)F)C2=O)c1 | 0.601 | 0.101 | >=7.5 | 5 | 1.01 | >=7.5 | 0.801 | 1.01 | >=0.201 | 1.01
13 | Cn1cnnc1C[C@](C)(F)c1cccc(N2Cc3c(cccc3C(F)(F)F)C2=O)c1 | 0.601 | 0.051 | 1.01 | 1.01 | 1.01 | 1.01 | 0.801 | 1.01 | 0.101 | <=1
